According to ChEMBL document CHEMBL3393036, “Tetra-substituted pyridinylimidazoles as dual inhibitors of p38α mitogen-activated protein kinase and c-Jun N-terminal kinase 3 for potential treatment of neurodegenerative diseases” (J Med Chem, 2015):

How the values were obtained:
Homo sapiens = species on record: Homo sapiens; test: Inhibition of CDK1B (unknown origin) at 5.5 uM by Caliper Mobility Shift Assay
[1] = molecular target: Insulin receptor (Homo sapiens) (UniProt P06213); test: Inhibition of INSR (unknown origin) at 5.5 uM by Caliper Mobility Shift Assay
[2] = molecular target: Protein kinase C theta type (Homo sapiens) (UniProt Q04759); test: Inhibition of PRKCQ (unknown origin) at 5.5 uM by Caliper Mobility Shift Assay
[3] = molecular target: Mitogen-activated protein kinase 1 (Homo sapiens) (UniProt P28482); test: Inhibition of MAPK1 (ERK2) (unknown origin) at 5.5 uM by Caliper Mobility Shift Assay
[4] = molecular target: Tyrosine-protein kinase Lyn (Homo sapiens) (UniProt P07948); test: Inhibition of LYN (unknown origin) at 5.5 uM by Caliper Mobility Shift Assay
[5] = molecular target: Mitogen-activated protein kinase 10 (Homo sapiens, UniProt P53779); test: Inhibition of MAPK10 (JNK3) (unknown origin) at 5.5 uM by Caliper Mobility Shift Assay
[6] = molecular target: T1, Aurora kinase A (Homo sapiens) (UniProt O14965); test: Inhibition of AURKA (unknown origin) at 5.5 uM by Caliper Mobility Shift Assay
T1 sequence (whole entry): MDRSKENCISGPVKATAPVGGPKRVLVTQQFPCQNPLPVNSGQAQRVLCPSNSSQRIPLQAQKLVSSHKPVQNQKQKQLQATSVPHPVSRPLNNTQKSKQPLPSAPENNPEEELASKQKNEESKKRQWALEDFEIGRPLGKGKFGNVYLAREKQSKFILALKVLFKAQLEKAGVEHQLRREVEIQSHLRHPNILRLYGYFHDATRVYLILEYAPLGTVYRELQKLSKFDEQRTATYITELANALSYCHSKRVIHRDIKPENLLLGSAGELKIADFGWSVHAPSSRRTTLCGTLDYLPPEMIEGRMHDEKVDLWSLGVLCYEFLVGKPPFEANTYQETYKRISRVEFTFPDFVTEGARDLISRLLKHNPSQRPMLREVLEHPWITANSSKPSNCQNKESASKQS

[7] = molecular target: Mitogen-activated protein kinase 14 (Homo sapiens, UniProt Q16539); test: Inhibition of p38a (unknown origin) at 5.5 uM by Caliper Mobility Shift Assay
[8] = molecular target: Glycogen synthase kinase-3 beta (Homo sapiens) (UniProt P49841); test: Inhibition of GSK3beta (unknown origin) at 5.5 uM by Caliper Mobility Shift Assay
[9] = molecular target: Mitogen-activated protein kinase 8 (Homo sapiens) (UniProt P45983); test: Inhibition of JNK1 (unknown origin) at 5.5 uM by Caliper Mobility Shift Assay
[10] = molecular target: T2, Ephrin type-B receptor 4 (Homo sapiens) (UniProt P54760); test: Inhibition of EPHB4 (unknown origin) at 5.5 uM by Caliper Mobility Shift Assay
T2 sequence (whole entry): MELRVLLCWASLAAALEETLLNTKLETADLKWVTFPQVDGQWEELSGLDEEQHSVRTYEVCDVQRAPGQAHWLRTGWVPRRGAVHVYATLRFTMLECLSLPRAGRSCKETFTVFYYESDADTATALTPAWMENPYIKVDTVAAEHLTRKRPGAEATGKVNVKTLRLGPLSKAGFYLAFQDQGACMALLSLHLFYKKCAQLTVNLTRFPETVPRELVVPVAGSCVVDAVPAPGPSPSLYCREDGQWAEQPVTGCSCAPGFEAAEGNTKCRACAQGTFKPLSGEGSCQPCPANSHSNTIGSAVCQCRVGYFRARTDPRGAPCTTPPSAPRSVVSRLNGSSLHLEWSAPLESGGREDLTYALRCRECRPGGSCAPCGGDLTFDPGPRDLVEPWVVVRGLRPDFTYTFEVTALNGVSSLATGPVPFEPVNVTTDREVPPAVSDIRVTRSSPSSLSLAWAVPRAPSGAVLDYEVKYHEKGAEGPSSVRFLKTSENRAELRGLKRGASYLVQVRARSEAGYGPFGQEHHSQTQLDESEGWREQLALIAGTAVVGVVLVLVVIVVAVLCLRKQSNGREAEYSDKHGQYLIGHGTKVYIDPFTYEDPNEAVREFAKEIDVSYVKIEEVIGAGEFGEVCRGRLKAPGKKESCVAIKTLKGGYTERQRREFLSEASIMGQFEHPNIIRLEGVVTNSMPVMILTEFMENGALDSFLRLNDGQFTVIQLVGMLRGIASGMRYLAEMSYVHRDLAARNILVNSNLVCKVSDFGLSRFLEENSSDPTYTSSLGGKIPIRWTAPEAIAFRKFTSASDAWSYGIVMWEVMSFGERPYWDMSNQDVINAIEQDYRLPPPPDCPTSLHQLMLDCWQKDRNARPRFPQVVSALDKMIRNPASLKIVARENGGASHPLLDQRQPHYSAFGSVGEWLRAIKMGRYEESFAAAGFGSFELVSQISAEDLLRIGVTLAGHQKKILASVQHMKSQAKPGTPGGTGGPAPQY

[11] = molecular target: Platelet-derived growth factor receptor alpha (Homo sapiens) (UniProt P16234); test: Inhibition of PDGFRa (unknown origin) at 5.5 uM by Caliper Mobility Shift Assay
[12] = molecular target: Receptor tyrosine-protein kinase erbB-4 (Homo sapiens) (UniProt Q15303); test: Inhibition of ERBB4 (HER4) (unknown origin) at 5.5 uM by Caliper Mobility Shift Assay
[13] = molecular target: Fibroblast growth factor receptor 1 (Homo sapiens) (UniProt P11362); test: Inhibition of FGFR1 (unknown origin) at 5.5 uM by Caliper Mobility Shift Assay
[14] = molecular target: Casein kinase I isoform gamma-3 (Homo sapiens) (UniProt Q9Y6M4); test: Inhibition of CSNK1G3 (CK1) (unknown origin) at 5.5 uM by Caliper Mobility Shift Assay
[15] = molecular target: Proto-oncogene tyrosine-protein kinase receptor Ret (Homo sapiens) (UniProt P07949); test: Inhibition of RET (unknown origin) at 5.5 uM by Caliper Mobility Shift Assay
[16] = molecular target: T3, Interleukin-1 receptor-associated kinase 4 (Homo sapiens) (UniProt Q9NWZ3); test: Inhibition of IRAK4 (unknown origin) at 5.5 uM by Caliper Mobility Shift Assay
T3 sequence (whole entry): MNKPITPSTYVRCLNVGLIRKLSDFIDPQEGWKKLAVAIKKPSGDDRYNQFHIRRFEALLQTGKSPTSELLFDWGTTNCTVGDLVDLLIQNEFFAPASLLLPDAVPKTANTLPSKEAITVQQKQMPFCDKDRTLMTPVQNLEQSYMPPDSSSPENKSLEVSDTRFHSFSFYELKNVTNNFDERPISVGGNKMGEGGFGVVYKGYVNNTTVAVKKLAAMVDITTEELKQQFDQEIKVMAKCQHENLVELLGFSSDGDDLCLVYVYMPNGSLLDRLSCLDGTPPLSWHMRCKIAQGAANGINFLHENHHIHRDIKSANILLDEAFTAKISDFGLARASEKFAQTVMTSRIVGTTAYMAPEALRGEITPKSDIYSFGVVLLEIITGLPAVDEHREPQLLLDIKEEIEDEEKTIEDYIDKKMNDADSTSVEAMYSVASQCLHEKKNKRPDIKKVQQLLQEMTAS

Measured: inhibition

Insulin receptor (Homo sapiens), sequence (P06213 28-758 limits assumed): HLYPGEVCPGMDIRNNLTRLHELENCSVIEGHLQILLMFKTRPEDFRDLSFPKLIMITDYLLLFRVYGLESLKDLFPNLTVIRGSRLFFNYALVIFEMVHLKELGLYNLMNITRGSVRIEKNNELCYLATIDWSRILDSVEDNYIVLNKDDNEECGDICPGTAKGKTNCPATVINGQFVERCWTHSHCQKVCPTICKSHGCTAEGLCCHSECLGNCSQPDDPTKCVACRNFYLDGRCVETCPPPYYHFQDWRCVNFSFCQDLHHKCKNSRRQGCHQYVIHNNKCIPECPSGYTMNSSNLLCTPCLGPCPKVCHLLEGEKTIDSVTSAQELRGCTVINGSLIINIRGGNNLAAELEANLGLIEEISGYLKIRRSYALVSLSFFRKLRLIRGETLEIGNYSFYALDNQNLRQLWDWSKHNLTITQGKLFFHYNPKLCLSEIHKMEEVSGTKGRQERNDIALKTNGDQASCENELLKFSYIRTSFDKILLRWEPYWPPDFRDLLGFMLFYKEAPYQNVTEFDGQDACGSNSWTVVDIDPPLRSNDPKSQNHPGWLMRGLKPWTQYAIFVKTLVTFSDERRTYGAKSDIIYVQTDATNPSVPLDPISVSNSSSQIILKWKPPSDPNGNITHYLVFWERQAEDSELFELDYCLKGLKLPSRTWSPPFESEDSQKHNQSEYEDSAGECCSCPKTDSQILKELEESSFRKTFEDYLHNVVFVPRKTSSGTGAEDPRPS
Insulin receptor (Homo sapiens), sequence (P06213 763-1382 limits assumed): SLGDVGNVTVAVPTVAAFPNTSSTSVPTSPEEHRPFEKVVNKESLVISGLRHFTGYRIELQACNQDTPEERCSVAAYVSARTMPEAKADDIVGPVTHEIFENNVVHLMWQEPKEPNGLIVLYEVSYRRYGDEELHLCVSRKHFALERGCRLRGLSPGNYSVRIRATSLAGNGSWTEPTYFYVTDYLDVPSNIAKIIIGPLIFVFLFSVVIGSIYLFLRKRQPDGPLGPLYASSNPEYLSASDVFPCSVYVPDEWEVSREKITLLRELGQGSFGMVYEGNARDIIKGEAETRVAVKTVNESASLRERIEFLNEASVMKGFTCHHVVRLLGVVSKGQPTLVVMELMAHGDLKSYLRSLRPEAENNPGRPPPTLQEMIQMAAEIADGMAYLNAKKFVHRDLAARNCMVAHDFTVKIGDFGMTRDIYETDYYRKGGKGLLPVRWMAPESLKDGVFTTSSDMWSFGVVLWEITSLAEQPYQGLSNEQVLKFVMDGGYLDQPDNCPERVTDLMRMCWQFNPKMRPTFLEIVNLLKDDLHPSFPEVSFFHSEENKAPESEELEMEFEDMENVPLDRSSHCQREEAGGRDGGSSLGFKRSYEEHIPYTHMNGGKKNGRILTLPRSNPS
Mitogen-activated protein kinase 14, sequence (Q16539 whole entry): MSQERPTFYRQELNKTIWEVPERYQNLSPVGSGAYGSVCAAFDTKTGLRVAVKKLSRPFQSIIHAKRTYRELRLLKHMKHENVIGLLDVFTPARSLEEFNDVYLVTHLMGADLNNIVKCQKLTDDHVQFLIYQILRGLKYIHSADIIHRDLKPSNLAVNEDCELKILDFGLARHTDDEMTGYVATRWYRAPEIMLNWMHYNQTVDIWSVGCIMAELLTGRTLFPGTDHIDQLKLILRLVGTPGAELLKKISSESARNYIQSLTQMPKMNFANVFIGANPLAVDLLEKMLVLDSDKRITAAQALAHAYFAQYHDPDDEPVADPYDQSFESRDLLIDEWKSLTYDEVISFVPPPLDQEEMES
Receptor tyrosine-protein kinase erbB-4 (Homo sapiens), sequence (Q15303 whole entry): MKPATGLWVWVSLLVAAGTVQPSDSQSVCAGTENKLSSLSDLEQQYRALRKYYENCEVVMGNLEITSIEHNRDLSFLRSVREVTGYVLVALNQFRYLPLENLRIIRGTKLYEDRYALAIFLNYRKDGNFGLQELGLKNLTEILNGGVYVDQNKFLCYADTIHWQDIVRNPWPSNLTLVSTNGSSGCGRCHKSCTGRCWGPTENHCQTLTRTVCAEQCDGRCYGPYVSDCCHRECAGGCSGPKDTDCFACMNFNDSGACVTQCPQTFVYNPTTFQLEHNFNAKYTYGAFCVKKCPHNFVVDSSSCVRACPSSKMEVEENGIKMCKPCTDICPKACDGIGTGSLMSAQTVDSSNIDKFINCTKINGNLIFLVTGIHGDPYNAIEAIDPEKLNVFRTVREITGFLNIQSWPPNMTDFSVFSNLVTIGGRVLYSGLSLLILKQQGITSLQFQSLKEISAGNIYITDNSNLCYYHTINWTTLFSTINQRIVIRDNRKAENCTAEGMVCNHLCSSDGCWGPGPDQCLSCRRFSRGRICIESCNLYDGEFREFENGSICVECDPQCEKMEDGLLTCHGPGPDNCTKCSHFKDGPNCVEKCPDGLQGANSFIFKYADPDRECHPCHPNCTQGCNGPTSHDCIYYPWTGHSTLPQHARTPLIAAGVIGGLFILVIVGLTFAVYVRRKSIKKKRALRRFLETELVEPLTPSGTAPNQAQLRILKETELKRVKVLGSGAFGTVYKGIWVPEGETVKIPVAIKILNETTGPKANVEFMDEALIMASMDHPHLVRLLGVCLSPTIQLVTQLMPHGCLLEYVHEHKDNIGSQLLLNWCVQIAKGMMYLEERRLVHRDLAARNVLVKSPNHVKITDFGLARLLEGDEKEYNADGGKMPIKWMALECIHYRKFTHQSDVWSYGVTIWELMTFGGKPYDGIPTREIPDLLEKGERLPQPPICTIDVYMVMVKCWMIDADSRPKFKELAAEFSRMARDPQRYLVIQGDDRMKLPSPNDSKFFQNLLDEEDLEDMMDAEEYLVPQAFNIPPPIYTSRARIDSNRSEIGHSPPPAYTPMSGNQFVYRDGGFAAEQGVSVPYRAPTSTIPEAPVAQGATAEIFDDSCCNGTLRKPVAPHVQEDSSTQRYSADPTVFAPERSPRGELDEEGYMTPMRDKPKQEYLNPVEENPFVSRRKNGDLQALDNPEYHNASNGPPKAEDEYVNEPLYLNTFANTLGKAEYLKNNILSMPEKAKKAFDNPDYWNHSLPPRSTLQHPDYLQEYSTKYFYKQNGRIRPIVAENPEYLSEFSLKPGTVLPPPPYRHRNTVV
Mitogen-activated protein kinase 1 (Homo sapiens), sequence (P28482 whole entry): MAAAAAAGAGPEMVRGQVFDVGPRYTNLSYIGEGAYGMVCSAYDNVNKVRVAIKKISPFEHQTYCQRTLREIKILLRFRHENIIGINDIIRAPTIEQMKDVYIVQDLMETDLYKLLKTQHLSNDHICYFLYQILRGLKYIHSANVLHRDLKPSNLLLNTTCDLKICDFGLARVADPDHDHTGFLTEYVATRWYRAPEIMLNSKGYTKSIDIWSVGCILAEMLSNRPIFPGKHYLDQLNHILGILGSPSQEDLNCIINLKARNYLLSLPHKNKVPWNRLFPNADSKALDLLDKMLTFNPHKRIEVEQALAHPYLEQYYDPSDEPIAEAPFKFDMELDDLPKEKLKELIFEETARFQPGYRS
Mitogen-activated protein kinase 10, sequence (P53779 whole entry): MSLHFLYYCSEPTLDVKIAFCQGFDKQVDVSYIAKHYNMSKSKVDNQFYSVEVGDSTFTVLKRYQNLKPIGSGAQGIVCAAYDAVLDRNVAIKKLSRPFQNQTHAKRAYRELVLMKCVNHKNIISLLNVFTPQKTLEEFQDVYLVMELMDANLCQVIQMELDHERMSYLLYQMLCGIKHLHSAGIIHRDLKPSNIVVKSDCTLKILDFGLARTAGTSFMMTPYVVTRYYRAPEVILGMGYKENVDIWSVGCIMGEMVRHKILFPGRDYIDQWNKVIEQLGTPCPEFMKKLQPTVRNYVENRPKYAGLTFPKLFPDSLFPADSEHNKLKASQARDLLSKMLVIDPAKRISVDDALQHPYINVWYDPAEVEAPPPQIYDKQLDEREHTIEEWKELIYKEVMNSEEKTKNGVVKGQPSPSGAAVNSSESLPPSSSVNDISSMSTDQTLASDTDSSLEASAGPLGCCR
Protein kinase C theta type (Homo sapiens), sequence (Q04759 whole entry, looked up): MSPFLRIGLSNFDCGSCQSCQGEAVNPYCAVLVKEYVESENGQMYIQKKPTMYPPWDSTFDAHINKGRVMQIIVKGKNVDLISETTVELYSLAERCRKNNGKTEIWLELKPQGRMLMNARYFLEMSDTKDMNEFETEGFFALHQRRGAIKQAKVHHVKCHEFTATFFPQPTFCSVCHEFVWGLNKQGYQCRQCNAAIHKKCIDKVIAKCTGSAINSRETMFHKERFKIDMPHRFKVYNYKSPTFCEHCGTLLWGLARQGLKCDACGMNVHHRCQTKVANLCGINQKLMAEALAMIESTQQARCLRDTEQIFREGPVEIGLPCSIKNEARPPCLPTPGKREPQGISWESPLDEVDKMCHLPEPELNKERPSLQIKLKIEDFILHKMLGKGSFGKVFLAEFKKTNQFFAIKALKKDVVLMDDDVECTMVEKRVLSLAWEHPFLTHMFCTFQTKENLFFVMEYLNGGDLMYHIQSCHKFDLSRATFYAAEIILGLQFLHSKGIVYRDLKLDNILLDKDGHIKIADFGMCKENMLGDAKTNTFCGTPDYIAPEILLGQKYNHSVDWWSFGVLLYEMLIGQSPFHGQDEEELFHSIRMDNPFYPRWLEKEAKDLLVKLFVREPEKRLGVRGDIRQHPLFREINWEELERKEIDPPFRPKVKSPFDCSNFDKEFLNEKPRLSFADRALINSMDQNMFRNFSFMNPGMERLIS
Glycogen synthase kinase-3 beta (Homo sapiens), sequence (P49841 whole entry, looked up): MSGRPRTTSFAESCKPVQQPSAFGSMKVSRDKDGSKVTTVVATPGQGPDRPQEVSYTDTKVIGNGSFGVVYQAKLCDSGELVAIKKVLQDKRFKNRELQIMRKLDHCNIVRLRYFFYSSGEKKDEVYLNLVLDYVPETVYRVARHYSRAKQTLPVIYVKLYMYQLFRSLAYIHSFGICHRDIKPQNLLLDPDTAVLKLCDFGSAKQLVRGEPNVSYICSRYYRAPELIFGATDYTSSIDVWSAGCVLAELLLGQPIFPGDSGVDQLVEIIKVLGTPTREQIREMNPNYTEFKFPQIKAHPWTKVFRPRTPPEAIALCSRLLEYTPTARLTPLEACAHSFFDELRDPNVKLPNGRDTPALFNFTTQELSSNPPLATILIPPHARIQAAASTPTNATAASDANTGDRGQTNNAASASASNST

CC(=O)Nc1cc(-c2c(-c3ccc(F)cc3)nc(S/C=C\C(=O)O)n2CC2CCCO2)ccn1 (racemic)
< 50%: all assays above

CC(=O)Nc1cc(-c2c(-c3ccc(F)cc3)nc(S/C=C\C(=O)O)n2C2CC2)ccn1
< 50%: all assays above

COC(Cn1c(SC2CCC(C(=O)O)CC2O)nc(-c2ccc(F)cc2)c1-c1ccnc(NC(C)=O)c1)OC (stereo not given)
< 50%: all assays above

CC(=O)Nc1cc(-c2c(-c3ccc(F)cc3)nc(Sc3cccc(I)n3)n2C2CCCCC2)ccn1
< 50%: all assays above

CC(=O)Nc1cc(-c2c(-c3ccc(F)cc3)nc(S/C=C\C(=O)O)n2C2CCCCC2)ccn1
< 50%: all assays above
